Measured values as given in US20230279002A1, “Polymorphs of Crystalline Forms of 3,10-dimethoxy-5,8,13,13a-tetrahydro-6H-isoquinolino[3,2-a]isoquinolin-9-yl 3-fluorobenzenesulfonate and Salts Thereof” (CVI Pharmaceuticals Limited, priority 2020, published 2023).
Entries after “also recorded” stand apart in the source; their conditions may differ.

Key:
Assay type in all cases: physicochemical
[1] = TGA (Thermal Gravimetric Analysis) weight loss; details: room temperature to 120° C.
Method: TGA (Thermal Gravimetric Analysis): Samples of compounds (4˜6 mg) were weighed into the pan, and heated under nitrogen purge using a ramp rate of 20° C./min over the range of 30° C.˜350° C.

[2] = DVS (Dynamic Vapor Sorption) moisture sorption/desorption, hygroscopicity classification; details: 25 °C; for Change In Mass (%) - ref, Desorption / Change In Mass (%) - ref, Sorption / Change In Mass (%) - ref, Hysteresis: Cycle 1
Outline: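 Moisture sorption/desorption profiled by DVS on about 10–20 mg sample, isothermal at 25° C, cycling 0%→95%→0% RH in 5% RH steps. Equilibrium per step taken at dm/dt ≤ 0.01%/min. Hygroscopicity class assigned from %-moisture gain versus rising RH.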

[3] = Solution stability in 0.1 N HCl, pH 4.5 buffer and pH 6.8 buffer at 25° C. and 37° C., HPLC
Outline: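 Methanol stock (1.0 mg/mL) diluted with each medium to ionic strength 0.15 M, final 50 μg/mL in 40% MeOH; acetate used for pH 4.5. For 1b and 3b at pH 6.8, final 25 μg/mL in 40% DMSO. Solutions stored at 25° C. and 37° C.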

[4] = Solubility in SGF, FaSSIF, FeSSIF, 0.1M HCl, pH 4.5 and pH 6.8 aqueous at 25° C. (HPLC); details: for Solubility conc.(mg/ml): solubility of salts transformed to freebase; for Final pH: solubility test
Method: Solubility: Excess drug substance was equilibrated with SGF (Simulated Gastric Fluid), FaSSIF (Simulated Small Intestinal Fluid under Fasted state), FeSSIF (Simulated Small Intestinal Fluid under Fed state), 0.1M HCl, pH 4.5 aqueous, and pH 6.8 aqueous at 25° C. After stirring for 20˜24 h, each sample was filtered, diluted appropriately and analyzed by HPLC. The experiment was terminated once a solubility target of 5 mg/mL was reached.

[5] = Solid stability at 40° C./0% RH (closed) and 40° C./75% RH (open), HPLC; details: for 0 day % remaining / 7 day % remaining / 21 day % remaining: solid
Outline: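 Solid compound (5 mg) stored in the dark at 40 °C/0% RH in closed vials and at 40 °C/75% RH open. Samples analysed by HPLC at day 0, 5 and 10, or at days 0, 7 and 21, depending on the study.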

3,10-dimethoxy-5,8,13,13a-tetrahydro-6H-isoquinolino[3,2-a]isoquinolin-9-yl 3-fluorobenzenesulfonate [Compound 1b]
TGA weight loss (in words) [1]: almost no weight loss
Hygroscopicity classification by DVS [2]: non-hygroscopic; also recorded: not hygroscopic
Change In Mass (%) - ref, Desorption ([2]; Target RH 0.0 %): 0.0000%
Change In Mass (%) - ref, Sorption ([2]; Target RH 0.0 %): 0.0000%
Change In Mass (%) - ref, Desorption ([2]; Target RH 5.0 %): 0.0094%
Change In Mass (%) - ref, Hysteresis ([2]; Target RH 5.0 %): 0.0031%
Change In Mass (%) - ref, Sorption ([2]; Target RH 5.0 %): 0.0063%
Change In Mass (%) - ref, Desorption ([2]; Target RH 10.0 %): 0.0157%
Change In Mass (%) - ref, Hysteresis ([2]; Target RH 10.0 %): 0.0052%
Change In Mass (%) - ref, Sorption ([2]; Target RH 10.0 %): 0.0104%
Change In Mass (%) - ref, Desorption ([2]; Target RH 15.0 %): 0.0198%
Change In Mass (%) - ref, Hysteresis ([2]; Target RH 15.0 %): 0.0063%
Change In Mass (%) - ref, Sorption ([2]; Target RH 15.0 %): 0.0136%
Change In Mass (%) - ref, Desorption ([2]; Target RH 20.0 %): 0.0251%
Change In Mass (%) - ref, Hysteresis ([2]; Target RH 20.0 %): 0.0073%
Change In Mass (%) - ref, Sorption ([2]; Target RH 20.0 %): 0.0178%
Change In Mass (%) - ref, Desorption ([2]; Target RH 25.0 %): 0.0292%
Change In Mass (%) - ref, Hysteresis ([2]; Target RH 25.0 %): 0.0084%
Change In Mass (%) - ref, Sorption ([2]; Target RH 25.0 %): 0.0209%
Change In Mass (%) - ref, Desorption ([2]; Target RH 30.0 %): 0.0334%
Change In Mass (%) - ref, Hysteresis ([2]; Target RH 30.0 %): 0.0104%
Change In Mass (%) - ref, Sorption ([2]; Target RH 30.0 %): 0.0230%
Change In Mass (%) - ref, Desorption ([2]; Target RH 35.0 %): 0.0386%
Change In Mass (%) - ref, Hysteresis ([2]; Target RH 35.0 %): 0.0125%
Change In Mass (%) - ref, Sorption ([2]; Target RH 35.0 %): 0.0261%
Change In Mass (%) - ref, Desorption ([2]; Target RH 40.0 %): 0.0449%
Change In Mass (%) - ref, Hysteresis ([2]; Target RH 40.0 %): 0.0094%
Change In Mass (%) - ref, Sorption ([2]; Target RH 40.0 %): 0.0355%
Change In Mass (%) - ref, Desorption ([2]; Target RH 45.0 %): 0.0501%
Change In Mass (%) - ref, Hysteresis ([2]; Target RH 45.0 %): 0.0104%
Change In Mass (%) - ref, Sorption ([2]; Target RH 45.0 %): 0.0397%
Change In Mass (%) - ref, Desorption ([2]; Target RH 50.0 %): 0.0543%
Change In Mass (%) - ref, Hysteresis ([2]; Target RH 50.0 %): 0.0115%
Change In Mass (%) - ref, Sorption ([2]; Target RH 50.0 %): 0.0428%
Change In Mass (%) - ref, Desorption ([2]; Target RH 55.0 %): 0.0606%
Change In Mass (%) - ref, Hysteresis ([2]; Target RH 55.0 %): 0.0146%
Change In Mass (%) - ref, Sorption ([2]; Target RH 55.0 %): 0.0460%
Change In Mass (%) - ref, Desorption ([2]; Target RH 60.0 %): 0.0658%
Change In Mass (%) - ref, Hysteresis ([2]; Target RH 60.0 %): 0.0178%
Change In Mass (%) - ref, Sorption ([2]; Target RH 60.0 %): 0.0480%
Change In Mass (%) - ref, Desorption ([2]; Target RH 65.0 %): 0.0689%
Change In Mass (%) - ref, Hysteresis ([2]; Target RH 65.0 %): 0.0178%
Change In Mass (%) - ref, Sorption ([2]; Target RH 65.0 %): 0.0512%
Change In Mass (%) - ref, Desorption ([2]; Target RH 70.0 %): 0.0731%
Change In Mass (%) - ref, Hysteresis ([2]; Target RH 70.0 %): 0.0157%
Change In Mass (%) - ref, Sorption ([2]; Target RH 70.0 %): 0.0574%
Change In Mass (%) - ref, Desorption ([2]; Target RH 75.0 %): 0.0794%
Change In Mass (%) - ref, Hysteresis ([2]; Target RH 75.0 %): 0.0146%
Change In Mass (%) - ref, Sorption ([2]; Target RH 75.0 %): 0.0648%
Change In Mass (%) - ref, Desorption ([2]; Target RH 80.0 %): 0.0857%
Change In Mass (%) - ref, Hysteresis ([2]; Target RH 80.0 %): 0.0136%
Change In Mass (%) - ref, Sorption ([2]; Target RH 80.0 %): 0.0721%
Change In Mass (%) - ref, Desorption ([2]; Target RH 85.0 %): 0.0940%
Change In Mass (%) - ref, Hysteresis ([2]; Target RH 85.0 %): 0.0136%
Change In Mass (%) - ref, Sorption ([2]; Target RH 85.0 %): 0.0804%
Change In Mass (%) - ref, Desorption ([2]; Target RH 90.0 %): 0.1065%
Change In Mass (%) - ref, Hysteresis ([2]; Target RH 90.0 %): 0.0115%
Change In Mass (%) - ref, Sorption ([2]; Target RH 90.0 %): 0.0951%
Change In Mass (%) - ref, Desorption ([2]; Target RH 95.0 %): 0.1159%
Change In Mass (%) - ref, Sorption ([2]; Target RH 95.0 %): 0.1159%
moisture picked up (DVS) ([2]; at 95% RH): ~0.2%
Remaining % ([3]; 25° C., 0.1N HCL, 0 h, 50 μg/mL, 40% MeOH): 100.00%
Remaining % ([3]; 25° C., 0.1N HCL, 3 h, 50 μg/mL, 40% MeOH): 100.53%
Remaining % ([3]; 25° C., 0.1N HCL, 24 h, 50 μg/mL, 40% MeOH): 100.88%
Solution stability ([3]; 25° C., 24 h, 0.1N HCl, pH 4.5 buffer): stable
Solution stability ([3]; 25° C., 24 h, pH 6.8 buffer): clear degradations
Remaining % ([3]; 25° C., pH 4.5, 0 h, 50 μg/mL, 40% MeOH): 100.00%
Remaining % ([3]; 25° C., pH 4.5, 3 h, 50 μg/mL, 40% MeOH): 99.94%
Remaining % ([3]; 25° C., pH 4.5, 24 h, 50 μg/mL, 40% MeOH): 98.79%
Remaining % ([3]; 25° C., pH 6.8*, 0 h, final conc. 25 μg/mL with 40% DMSO): 100.00%
Remaining % ([3]; 25° C., pH 6.8*, 3 h, final conc. 25 μg/mL with 40% DMSO): 99.18%
Remaining % ([3]; 25° C., pH 6.8*, 24 h, final conc. 25 μg/mL with 40% DMSO): 91.23%
Remaining % ([3]; 37° C., 0.1N HCL, 0 h, 50 μg/mL, 40% MeOH): 100.00%
Remaining % ([3]; 37° C., 0.1N HCL, 3 h, 50 μg/mL, 40% MeOH): 101.92%
Remaining % ([3]; 37° C., 0.1N HCL, 24 h, 50 μg/mL, 40% MeOH): 100.14%
Solution stability ([3]; 37° C., 24 h, 0.1N HCl, pH 4.5 buffer): stable
Solution stability ([3]; 37° C., 24 h, pH 6.8 buffer): decomposed
Remaining % ([3]; 37° C., pH 4.5, 0 h, 50 μg/mL, 40% MeOH): 100.00%
Remaining % ([3]; 37° C., pH 4.5, 3 h, 50 μg/mL, 40% MeOH): 99.51%
Remaining % ([3]; 37° C., pH 4.5, 24 h, 50 μg/mL, 40% MeOH): 98.83%
Remaining % ([3]; 37° C., pH 6.8*, 0 h, final conc. 25 μg/mL with 40% DMSO): 100.00%
Remaining % ([3]; 37° C., pH 6.8*, 3 h, final conc. 25 μg/mL with 40% DMSO): 98.97%
Remaining % ([3]; 37° C., pH 6.8*, 24 h, final conc. 25 μg/mL with 40% DMSO): 94.70%
Solubility conc.(mg/ml) ([4]; 0.1N HCL): 0.605 mg/mL
Solubility conc.(mg/ml) ([4]; FaSSIF): 0.007 mg/mL
Solubility conc.(mg/ml) ([4]; FeSSIF): 0.009 mg/mL
Solubility conc.(mg/ml) ([4]; SGF): 0.588 mg/mL
Solubility conc.(mg/ml) ([4]; Water): 0.008 mg/mL
Solubility conc.(mg/ml) ([4]; pH 4.5 Acetate Buffer (USP)): 0.008 mg/mL
Solubility conc.(mg/ml) ([4]; pH 6.8 Phosphate Buffer (USP)): 0.011 mg/mL
Final pH ([4]; 0.1N HCL): 1.68
Final pH ([4]; FaSSIF): 6.52
Final pH ([4]; FeSSIF): 5.14
Final pH ([4]; SGF): 1.67
Final pH ([4]; Water): 5.42
Final pH ([4]; pH 4.5 Acetate Buffer (USP)): 4.59
Final pH ([4]; pH 6.8 Phosphate Buffer (USP)): 6.91
Solid-state stability (HPLC) ([5]; 40° C./0% RH (closed) and 40° C./75% RH (open), dark, up to 3 weeks): substantially stable
0 day % remaining ([5]; 40° C. (0% RH, closed)): 100.0%
7 day % remaining ([5]; 40° C. (0% RH, closed)): 99.3%
21 day % remaining ([5]; 40° C. (0% RH, closed)): 98.4%
0 day % remaining ([5]; 40° C./75% RH (open)): 100.0%
7 day % remaining ([5]; 40° C./75% RH (open)): 99.2%
21 day % remaining ([5]; 40° C./75% RH (open)): 102.0%
